This note sets out measurements from patent US8742123B2, “HIV integrase inhibitors from pyridoxine” (TaiMed Biologics, Inc., priority 2008, dated 2014).

Read-outs that look alike come from different tables or passages of the source.

A short description of data set [1]: protein binding by Rapid Equilibrium Dialysis (RED), 10% FBS-RPMI. It is filed as in vitro ADME. The following applies: bovine, 37° C. The protocol:
(§1) Protein binding was tested by Rapid Equilibrium Dialysis (RED) method (The RED (Rapid equilibrium Dialysis) Device inserts instruction manual. Pierce, Rockford Ill.). […] The red chamber was loaded with 0.3 mL of samples containing compounds. The white chamber contained 0.5 mL of D-PBS buffer only. The plate was incubated at 37° C. while shaking at 150 rpm for 5 hours. Aliquots from both chambers were analyzed by LC/MS/MS. The multi-cycle antiviral activity in the absence and presence of human serum was determined by p24 ELISA measurement after 6 days of NL4.3 virus infection.
Background: Equilibrium dialysis compares concentrations on both sides of a semipermeable membrane.

A further data set has as its target T1, CYP2C9 (Homo sapiens, UniProt P11712).
T1 construct: the incubation medium contained 0.3 mg/mL human liver microsomes; from tissue; host or cells: human liver microsomes
Nature of the data set: human CYP inhibition in human liver microsomes. The format is in vitro ADME. The protocol:
(§2) For the human CYP inhibition experiments, the incubation medium contained 0.3 mg/mL human liver microsomes, 100 mM phosphate buffer pH 7.4, 5 mM MgCl2, 1 mM EDTA. The respective substrates for CYP3A4, CYP2C9 and CYP2D6 were added at various concentrations in the presence or absence of the compounds tested. After pre-incubation, the reaction was initiated by the addition of NADPH at final concentration 1 mM. Incubation times were 10, 60 and 15 minutes for CYP3A4, CYP2C9 and CYP2D6, respectively (Walsky R L and Obach R S., Drug Metabolism and Disposition, 2004, 32, 647-660). GraphPad Prism software was used for data analysis.

In another data set the target is T2, CYP3A4 (Homo sapiens, UniProt P08684).
T2 construct: the incubation medium contained 0.3 mg/mL human liver microsomes; from tissue; host or cells: human liver microsomes
T2 sequence (P08684 whole entry): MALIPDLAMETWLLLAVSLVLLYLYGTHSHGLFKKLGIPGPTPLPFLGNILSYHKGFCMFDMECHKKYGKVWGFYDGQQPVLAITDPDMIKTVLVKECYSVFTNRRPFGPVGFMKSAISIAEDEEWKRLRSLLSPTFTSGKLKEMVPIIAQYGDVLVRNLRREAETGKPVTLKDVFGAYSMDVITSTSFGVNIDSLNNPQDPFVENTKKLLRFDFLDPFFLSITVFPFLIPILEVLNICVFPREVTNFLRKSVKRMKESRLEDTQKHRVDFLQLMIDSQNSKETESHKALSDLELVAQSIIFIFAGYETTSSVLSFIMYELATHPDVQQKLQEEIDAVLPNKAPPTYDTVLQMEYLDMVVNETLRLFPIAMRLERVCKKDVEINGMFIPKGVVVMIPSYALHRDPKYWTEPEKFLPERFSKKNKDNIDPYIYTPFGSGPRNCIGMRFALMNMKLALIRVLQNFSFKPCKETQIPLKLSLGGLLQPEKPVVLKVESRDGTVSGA
Nature of the data set: human CYP inhibition in human liver microsomes. The following applies: CYP3A4 (printed CYP34A). The format is in vitro ADME. The procedure: as §2

The test system of a further data set is NL4.3 virus. Nature of the data set: multi-cycle antiviral activity in absence and presence of human serum, p24 ELISA. It is filed as cell-based, HIV-1. The note with it: for EC50: Human immunodeficiency virus 1, 144 h. The protocol: as §1
(In general: ELISA stands for enzyme-linked immunosorbent assay.)

Data set [2] is described as follows: protein binding by Rapid Equilibrium Dialysis (RED), human serum. It is filed as in vitro ADME. The note with it: 37° C., 100% HS. The protocol: as §1
Another data set concerns wild type NL-4.3. Nature of the data set: multi-cycle infection assay in MT-4 cells (MTT cytoprotection). The format is cell-based, HIV-1. The following applies: Human immunodeficiency virus 1, MT4, 144 h, read-out: EC50 (nM) multi-cycle. The procedure: The antiviral efficacies of the integrase inhibitor compounds of the invention were evaluated based on EC50 measures obtained from two different in vitro HIV infection assay using cultured MT-4 cells: (1) a multi-cycle infection where cells were infected with wild type NL-4.3) and (2) a single-cycle infection where the cells were infected with a luciferase-bearing, envelope defective (env-) NL-4.3 virus pseudotyped with HIV-1 env (HXBc2.
The incubation period for the multi-cycle infection assay was 6 days. Cell viability (cytoprotection) and EC50 were determined using the colorimetric MTT assay (A. J. Japour et al, Antimicrobial Agents and Chemotherapy, 37, 1095-1101, 1993 and R. Pauwels et al. Journal of Virological Methods, 20, 309-321, 1988).

Data set [3] is described as follows: human liver microsome stability. The following applies: pH 7.4, 1 μM compound. The format is in vitro ADME. The protocol:
After pre-incubation, the assay was started by the addition of 1 μM of compound. Samples were taken after 0, 15, 30, 60, 90 and 120 minutes of incubation (Fisher M B, Drug Metabolism and Disposition, 2000, 28, 560-566). GraphPad Prism software was used for data analysis. The results, showing that the compounds of the invention are metabolically stable in Human liver microsomes, are provided in Table 7 below.
(In general: Liver microsomes are vesicles of endoplasmic reticulum, rich in cytochrome P450 enzymes.)

A short description of data set [4]: pharmacokinetic (PK) profile in rats. It is filed as in vivo. The following applies: female Sprague-Dawley rats, 5 mg/kg intravenously, 50 mg/kg orally, plasma LC/MS/MS. The protocol: Female Sprague-Dawley rats were randomly selected and assigned to two groups. A group of 13 rats were administered 5 mg/kg of compound 2 intravenously. A second group of 8 rats were administered 50 mg/kg of compound 2 orally. Following the dosing, blood was collected at 7 different time points. Plasma samples obtained from the blood samples were analyzed by LC/MS/MS and the bioavailability of compound 2 was determined.

The subject of the next data set is HIV-1 isolate 94US33931N. Nature of the data set: acute infection assay in PHA-stimulated PBMCs, supernatant RT activity. The format is cell-based. The note with it: Human immunodeficiency virus 1, PBMC, 144 h, 6 day incubation. The procedure: (§3) Acute infection assays using fresh human phytohemagglutinin (PHA)-stimulated peripheral blood mononuclear cells (PBMCs) were carried out. PBMCs were stimulated with IL-2 and infected with one of two wild-type drug-sensitive clinical HIV-1 isolates. The strains HIV-1 used for the infections, 91US005 (primary R5 strain of HIV-1) and 94US33931N, are both Group M, Subtype B viruses. Antiviral activity was determined as a reduction in supernatent reverse transcriptase (RT) activity after a 6 day incubation.

The subject of a further data set is HIV-1 isolate 91US005. The description is as above. It is filed as cell-based. The following applies: Human immunodeficiency virus 1, PBMC, 144 h, HIV-1 isolate 91US005, 6 day incubation. The protocol: as §3
Data set [5] deals with T3, recombinant HIV-1 integrase (Human immunodeficiency virus type 1 group M subtype B, UniProt P12497).
T3 construct: Recombinant integrase (250 ng/well) was assembled onto the immobilized donor oligonucleotide
Nature of the data set: integrase strand transfer assay. It is filed as biochemical. The following applies: compounds added after assembly, 10% DMSO, read-out: ST IC50. The procedure: IC50 was determined for the compounds of the inventions based on data generated in strand transfer assays. The IC50 is a measure of the ability of the compounds tested to inhibit the integration of 3′-processed oligonucleotides by recombinant HIV-1 integrase.
Strand transfer assays were performed essentially as described in Hazuda, D. J.; Felock, P.; Hastings, J. C.; Pramanik, B.; Wolfe, A. J. Virol. 1997, 71, 7005-7011). Donor DNA (1.5 pmol/well), biotinylated on the 5′ end of the strand processed by integrase, was immobilized onto streptavidin-coated microtiter plates. Recombinant integrase (250 ng/well) was assembled onto the immobilized donor oligonucleotide in reaction buffer (20 mM Hepes, pH 7.6, 5 mM B-mercaptoethanol, 50 ug/mL bovine serum albumin) containing 30 mM MnCl2. Excess enzyme was removed, and the complexes were washed extensively prior to the addition of the target DNA substrate. The target DNA (0.75 pmoles/well) substrate was labeled on each 3′ end with FITC. After strand transfer, the FITC-labeled products were detected using an anti-FITC antibody conjugated with alkaline phosphatase (Roche) and a chemiluminescent substrate (Tropix CSPD with Sapphire II enhancer, Applied Biosystems). The assay was performed in a final concentration of 10% DMSO. To specifically evaluate inhibition of strand transfer, compounds were added after assembly, just prior to the addition of the target DNA.
The results of the integrase strand transfer assay are reported as IC50 values. IC50 values were determined using a sigmoidal dose-response equation. The formula used for calculating % inhibition was: % Inhibition=[1-(sample counts/average of positive control)]*100. […] Using GraphPad Prism or ActivityBase (IDBS) software IC50 was determined using following sigmoidal dose-response equation: Y=(A+((B−A)/(1+((C/X)^D))))

Where [6] appears, read: MT-4 cells, wild type NL-4.3, 6 days, MTT.
Setting [7] is: human liver microsomes, 1 mM NADPH and 1 mM UDPGA, read-out: Half-life in HLM (hrs) NADPH/UDPGA (converted).
[8] abbreviates: human liver microsomes, 1 mM NADPH, read-out: Half-life in HLM (hrs) NADPH (converted).
[9] abbreviates: human liver microsomes, 1 mM UDPGA, read-out: Half-life in HLM (hrs) UDPGA (converted).

T1 sequence (P11712 whole entry): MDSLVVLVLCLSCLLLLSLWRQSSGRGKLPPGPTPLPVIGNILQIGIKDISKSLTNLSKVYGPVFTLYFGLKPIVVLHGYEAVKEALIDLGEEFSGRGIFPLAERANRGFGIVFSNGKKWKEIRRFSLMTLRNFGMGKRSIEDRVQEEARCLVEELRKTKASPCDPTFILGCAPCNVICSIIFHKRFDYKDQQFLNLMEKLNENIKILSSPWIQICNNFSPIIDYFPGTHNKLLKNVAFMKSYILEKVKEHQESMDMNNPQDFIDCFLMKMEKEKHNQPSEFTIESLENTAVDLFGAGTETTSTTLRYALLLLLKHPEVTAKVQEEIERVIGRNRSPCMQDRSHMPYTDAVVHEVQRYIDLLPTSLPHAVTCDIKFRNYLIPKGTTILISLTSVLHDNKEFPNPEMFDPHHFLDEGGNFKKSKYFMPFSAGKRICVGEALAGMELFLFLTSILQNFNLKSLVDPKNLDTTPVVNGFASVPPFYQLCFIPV

The term fraction unbound denotes free concentration divided by total concentration. High values mean weak binding, low ones extensive binding. As a reminder, the Ki is the equilibrium dissociation constant of an inhibitor or competing ligand from its target. Read a low Ki as a stronger hold on the target. The term EC50 denotes the concentration at which the effect is half-maximal. Regarding `O=C(NCc1ccc(F)cc1)c1cnc(C(=O)NOCc2ccccc2)c(OCc2ccccc2)c1CO` [Example 1, N^2,3-bis(benzyloxy)-N^5-(4-fluorobenzyl)-4-(hydroxymethyl)pyridine-2,5-dicarboxamide], the unbound share (fraction unbound) at 5 hours, 1 uM in data set [1] (10% FBS-RPMI) was 0.475; in data set [2] (human serum (100%)), 0.11. Moreover, the Ki on CYP2C9 stood at 63.6 µM; on CYP3A4, 5.1 µM. Also, the “Fold-change with HS” value with NL4.3 virus (EC50 with 40% HS versus 10% FBS) was 2.1. Besides, the EC50 in the data set with NL4.3 virus (10% FBS + 40% HS, p24 ELISA after 6 days, read-out: EC50 (uM) 10% FBS + 40% HS) is 0.481 µM; in the data set on NL4.3 virus (10% FBS, p24 ELISA after 6 days, read-out: EC50 (uM) 10% FBS), 0.227 µM; in the data set with wild type NL-4.3 (setting [6]), > 10000 nM. Further, the half-life at 1 μM in [3] (setting [7]) is 3.9 h; in data set [3] (setting [8]), 7.4 h; in data set [3] (setting [9]) it was 19.7 h.
In general, IC50 refers to the midpoint of a concentration-inhibition curve. For the compound `O=C(NCc1ccc(F)cc1)c1cnc(C(=O)NO)c(O)c1CO` [Example 2, N^5-(4-fluorobenzyl)-N^2,3-dihydroxy-4-(hydroxymethyl)pyridine-2,5-dicarboxamide], the fraction unbound at 5 hours, 1 uM in data set [1] (10% FBS-RPMI) is 0.681; in data set [2] (human serum (100%)), 0.155. Moreover, the “adsorption / PK profile (FIG. 1)” value in data set [4] is “high adsorption”. The results for the EC50 with HIV-1 isolate 94US33931N, in the data set on HIV-1 isolate 91US005 and in the data set with wild type NL-4.3 (setting [6]) were 0.123 µM, 0.076 µM and 358 nM, respectively. Also, the IC50 in data set [5] was found to be 0.303 µM. Moreover, the half-life at 1 μM in data set [3] (setting [7]) was 5.9 h; in [3] (setting [8]) it was 5 h; in data set [3] (setting [9]) it was 16 h.
With `O=C(NCc1ccc2c(c1)OCO2)c1cnc(C(=O)NOCc2ccccc2)c(OCc2ccccc2)c1CO` [Example 3, N^5-(benzo[d][1,3]dioxol-5-ylmethyl)-N2,3-bis(benzyloxy)-4-(hydroxymethyl)pyridine-2,5-dicarboxamide], the affinity at CYP3A4, expressed as Ki, was 587 µM. The EC50 is 0.03 µM in the data set with HIV-1 isolate 94US33931N, 0.093 µM with HIV-1 isolate 91US005 and > 10000 nM in the data set with wild type NL-4.3 (setting [6]). For the same compound, the half-life at 1 μM in data set [3] (setting [7]) was 1.95 h; in [3] (setting [8]) it was 6.18 h; in [3] (setting [9]), 3.8 h.
Consider `Cc1nnc(C(=O)NC(C)(C)c2nc(C(=O)NCc3ccc(F)cc3)c(O)c(=O)n2C)o1` [Raltegravir, reference compound], for which the fraction unbound at 5 hours, 1 uM in [1] (serum) was 0.653; in [2] (serum), 0.133. The EC50 in the data set on NL4.3 virus (read-out: EC50 (uM) 10% FBS) was determined as 0.047 µM; in the data set on NL4.3 virus (read-out: EC50 (uM) 10% FBS + 40% HS) it was 0.064 µM; in the data set with wild type NL-4.3, 20 nM. Also, the half-life at 1 μM in data set [3] (microsomes, 1 mM NADPH and 1 mM UDPGA, read-out: Half-life in HLM (hrs) NADPH/UDPGA (converted)) is 11 h; in data set [3] (microsomes, 1 mM NADPH, read-out: Half-life in HLM (hrs) NADPH (converted)) it was 19.7 h; in data set [3] (microsomes, 1 mM UDPGA, read-out: Half-life in HLM (hrs) UDPGA (converted)) it was 7.03 h.
